Laboratory results as given in patent US6812247B2, “Organometallic complex” (Academia Sinica, priority 2001, dated 2004).

How the values were obtained:
[1] = system: supercoiled circular φX174 RFI DNA; assay: Single-strand DNA cleavage at various complex concentrations, 350 nm UV, agarose gel; format: biochemical; conditions: for % form I (supercoiled circular DNA) / % form II (cleaved DNA) / (% form II)/(% form I): pH 6.0
Description: The mixture was irradiated with 350 nm UV light (32-W) for 2.0 h at room temperature. After adding a gel-loading buffer (0.25% bromophenol blue, 0.25% xylene cyanol, and 30% glycerol), the reaction mixture was loaded on a 1% agarose gel, followed by ethidium bromide staining. The gel was visualized by a 312-nm UV transilluminator and photographed by a FB-PDC-34 camera. Supercoiled circular DNA (form I) and cleaved DNA (form II) were clearly seen from the gel.

[2] = system: supercoiled circular φX174 RFI DNA; assay: Single-strand DNA cleavage at various pH's, 350 nm UV, agarose gel; format: biochemical; conditions: complex 5.0 μM
Description: Cleavage at Various pH's: A reaction mixture (10 μL) containing supercoiled circular φX174 RFI DNA stock solution (50 μM/base pair), complex 1 (5.0 μM), and a phosphate buffer (0.10 M, pH 5.0, 6.0, 7.0, and 8.0) in a Pyrex vial was preincubated at 37° C. The reaction mixture was then irradiated with 350 nm UV light (32-W) for 2.0 h at room temperature. After adding a gel-loading buffer (0.25% bomophenol blue, 0.25% xylene cyanol, and 30% glycerol), the reaction mixture was loaded on a 1% agarose gel, followed by ethidium bromide staining. The gel was visualized by a 312-nm UV transilluminator and photographed by a FB-PDC-34 camera. Supercoiled circular DNA and cleaved DNA were clearly seen from the gel.

[3] = system: 160-bp dsDNA fragment from the 501-660 fragment of pBR322 DNA; assay: Site-specific DNA cleavage of 5'-32P-labeled fragment, polyacrylamide gel against Maxam-Gilbert markers; format: biochemical; conditions: complex 20-100 μM, 350-nm UV
Description: A 160-bp dsDNA fragment was prepared from the 501-660 fragment of pBR322 DNA. It was amplified by the polymerase chain reaction (Bailly & Waring (1995) J. Am. Chem. Soc. 117:7311; Bailly et al. (1993) J. Am. Chem. Soc. 115:3784; and Sayers & Waring (1993) Biochemistry 32:9094), and labeled at the 5′-terminus with γ-[^32P]-ATP and T4 polynucleotide kinase. A reaction mixture containing a 5′-terminus labeled ^32P-DNA solution, a phosphate buffer (0.10 M, pH 6.0), and complex 1 (20-100 μM) in a Pyrex vial was preincubated at 37° C. for 30 min. The reaction mixture was irradiated with 350-nm UV light under aerobic conditions for 2.0 h at room temperature. The bound metal complexes on DNA fragments were removed by using 0.30 N NaCN (pH=11) at 37° C. for 8.0 h (Schwartz et al. (1990) J. Am. Chem. Soc. 112:3673; and Zou et al. (1994) Biochemistry 33:5404). The reaction mixture was then quenched with either a gel-loading buffer or 95% ethanol. […] The samples and the Maxam-Gilbert markers were analyzed using 10% polyacrylamide/8.0 M urea gel. […] Quantitation of relative intensities of DNA fragments was performed using a Microtek scanner and NIH 1.60 image program.
The detected DNA fragments were compared with Maxam-Gilbert markers on an autoradiogram, and quantitated by a computer-assisted program.

[4] = system: double helical oligonucleotide d(ATAT)2; assay: DNA binding and cleaving mechanism with oligonucleotide, LC-mass; conditions: 1:1, pH 6.0, in the dark 2.0 h
Description: A double helical oligonucleotide d(ATAT)2 was prepared and added to a phosphate buffer solution (pH=6.0) containing complex 1 (1:1). The solution was kept in the dark for 2.0 h. An intermediate was detected, at a yield of 57%, with a signal at 650.1 for (M+H^+) as analyzed by an electron spray ionization detector in LC-mass chromatogram. Then, the solution was irradiated with 350 nm-UV light for 2.0 h at room temperature. A product was detected with a signal at 456.1 for (M+H^+). […] Then an intramolecular cyclization took place to remove the DMSO and to form a covalent bond between the N-7 nitrogen atom and the platinum in complex 1, resulting in the oligonucleotide cleavage.

2′-deoxyguanosine = assay: Binding and cleaving mechanism with 2'-deoxyguanosine, LC-mass
Description: As a comparison, a reaction involving 2′-deoxyguanosine and complex 1 was carried out. […] As a result, cleavage at a guanine site required assistance from an external base (e.g., piperidine). In another experiment, an excess of complex 1 was added to a 2′-deoxyguanosine solution, followed by piperidine treatment. An intermediate was detected, at a yield of 42%, with a signal at 1063.9 for (M+H^+) as analyzed by an electron spray ionization detector in LC-mass chromatogram. The intermediate was able to give a cyclization product, at a yield of 80%, with a signal at 792.0 for (M+H^+) upon 350-nm UV light irradiation, but not in the dark. The scheme below depicts the just-described reaction: [drawing 6]

[5] = complex 1.0 μM, 350 nm UV 2.0 h
[6] = complex 2.5 μM, 350 nm UV 2.0 h
[7] = complex 5.0 μM, 350 nm UV 2.0 h

In the case of `C[S+](C)(=O)[Pt]1([Cl])[O][n+]2ccccc2[S]1` (centres unmarked) [complex 1, PtCl(DMSO)[η^2—C5H4SN(O)]], the “% form I (supercoiled circular DNA)” value [1, 5] is reported as 37%, the “% form II (cleaved DNA)” value [1, 5] is reported as 63% and the “(% form II)/(% form I)” value [1, 5] is reported as 1.7. The “% form I (supercoiled circular DNA)” value [1, 6] was 20%, the “% form II (cleaved DNA)” value [1, 6] was 80% and the “(% form II)/(% form I)” value [1, 6] was 4.0. The “% form I (supercoiled circular DNA)” value [1, 7] was 7.1%, the “% form II (cleaved DNA)” value [1, 7] was 93% and the “(% form II)/(% form I)” value [1, 7] was 13. The “% form I (supercoiled circular DNA)” value ([1]; complex 500 μM, in the dark) was 93%, the “% form II (cleaved DNA)” value ([1]; complex 500 μM, in the dark) was 7.0% and the “(% form II)/(% form I)” value ([1]; complex 500 μM, in the dark) was 0.070. The DNA cleaving activity ([1]; concentration as low as 1.0 μM) was “very strong DNA cleaving activity”, the “cleavage of single-strand DNA” value ([1]; in the dark) was “did not occur” and the “DNA forms seen on gel” value ([2]; pH 5.0, 6.0, or 7.0, 350 nm UV 2.0 h) was “only cleaved DNA was observed”. The “DNA forms seen on gel” value ([2]; pH 8.0, 350 nm UV 2.0 h) was “both supercoiled circular DNA and cleaved DNA were observed”, the “site of DNA cleavage” value ([3]; with hot piperidine treatment) was “cleaved DNA at purine residues” and the “site of DNA cleavage” value ([3]; without piperidine treatment) was “at adenine residues”. The “binding site on nucleic acid” value [4] was “bound to the C-6 amino on an adenine”, the “yield of complex-bound intermediate” value [4] was 57% and the “binding site on nucleic acid” value (2′-deoxyguanosine) was “bound to the C-2 amino on a guanine”. For the same compound, the “yield of cyclization product from intermediate” value (2′-deoxyguanosine; 350-nm UV light irradiation, not in the dark) was 80% and the “yield of complex-bound intermediate” value (2′-deoxyguanosine; excess of complex 1, piperidine treatment) was 42%.
